Patent publication US20240366701A1, “EXTRACT OF MYROTHAMNUS SP FOR PROMOTING HAIR GROWTH” (Lubrizol Advanced Materials, Inc., priority 2021, published 2024)

Key:
[1] = system: Human Epidermal Keratinocyte cells (HEK); assay: In vitro proliferation assay on keratinocyte cells (PrestoBlue); type: cell-based; conditions: test concentration 10 (%, v/v), 24 h, negative control = 100.00
Method: Human Epidermal Keratinocyte cells (HEK) are grown to a density of 4500 cells/cm^2 in keratinocyte growth medium at 37° C. in 5% CO2 humidified air during 7 days. After this time, they are split and then seeded for treatment.
HEK are seeded at a density of 70000 cells/mL of culture medium in 96-well Cell Carrier black plates (PerkinElmer) in culture medium. After 24 hours incubation at 37° C. in 5% CO2 humidified air, medium is removed and fresh culture medium with dilutions of the test products. Cells treated with medium alone are used as negative control. Epidermal Growth Factor (EGF) is used as a positive control. After 24 hours incubation, live and dead cells are quantified with PrestoBlue® Cell Viability Reagent.
HEK quantification is quantified by fluorescence by using cell permeable resazurin-based solution PrestoBlue® from Thermo Fisher Scientific.
Stock solution of Example 1 and 2 are assayed in 3 independent experiments including 4 replicates in each experiment.

[2] = system: Human Umbilical Vein Endothelial cells (HUVEC); assay: In vitro new blood vessel (tube-like structure) formation; type: cell-based; conditions: 5 ng/ml, 4 h, respect basal condition
Description: Hair follicles get nourishment from blood flow in the skin having hair. Optimal irrigation of hair follicle increases its nourishment and stimulates the generation of new hair and improves hair growth and strength. Compounds able to generate new blood vessels in the hair follicle are good candidates for the cosmetic treatment of eyelash growth and strength. In vitro assessment of new blood vessels formation involves measurement of the ability of endothelial cells to form three-dimensional tube-like structures. Human Umbilical Vein Endothelial cells (HUVEC) mediate specific connections with extracellular matrix components generating differential forces which induces morphological changes and migration of HUVEC, leading to the formation of tube-like structures. The aim of this study is to evaluate the efficacy of the compound of the invention to generate new blood vessel tubes by means of measuring the ability of endothelial cells to form three-dimensional tube-like structures.
A 96 well plate is pre-coated with cold Extracellular Matrix Solution (Angiogenesis Assay kit, PromoKine) and incubated for 1 hour at 37° C. After the incubation, HUVEC cells are seeded in pre-coated wells at a density of 15,000 cells/well. Immediately, cells are treated with the stock solution of Example 2 dissolved in medium achieving a final well concentration of 0.5% (v/v). Vascular endothelial growth factor (VEGF) is used as positive control at a final well concentration of 5 ng/ml and cells treated with medium alone are used as a basal control. Cells are treated for 4 hours at 37° C. in 5% CO2 humidified air and then are stained with Staining Dye (Angiogenesis Assay kit, PromoKine) according to the manufacturer's protocol. Briefly, cells are washed and then Staining Dye solution was added. After a 30 minutes incubation at 37° C. in 5% CO2 humidified air, fluorescence images are captured using Operetta® confocal microscope (PerkinElmer, Inc) and new tubes formation is evaluated by ImageJ software.
New blood vessel tube formation is evaluated by the measurement of different parameters in each image acquired. […] Afterwards, the software quantifies more complex structures: • Segment length: number of pixels of each segment detected. • Master segment number: number of segments delimited by junctions without branch connection. • Master junction number: number of junctions which link at least three master segments. • Number of meshes: number of elements delimited by segments or master segments.
To consider an increase in new blood vessel tube formation, more than one of the parameters measured needs to be increased.
Results herein are the different measured parameters expressed as percentage normalized by basal condition.

Substance | Cell growth MEAN normalized with respect to the negative control [1] | % of number of master junctions (Mean ± SEM) [2] | % of number of master segments (Mean ± SEM) [2] | % of number of meshes (Mean ± SEM) [2] | % of total segment length (Mean ± SEM) [2]
Positive control (EGF): Epidermal Growth Factor used as a positive control | 94.41 |  |  |  | 
VEGF |  | 183.1 ± 31.1% | 196.5 ± 36.5% | 288.6 ± 75.9% | 160.1 ± 21.9%
